This note sets out measurements from ChEMBL document CHEMBL1681651, “A broad spectrum anticancer nucleoside with selective toxicity against human colon cells in vitro” (2011).

The structures appear in SMILES notation. Several values for one entry are separate records, joined by “and”; a condition that tells them apart may be missing. Identical values can stand only once.

Type in all cases: functional
For test [1], the system named is SF-295. Nature of the test: Growth inhibition of human SF295 cells assessed as cell growth at 10 uM after 48 hrs by SRB assay. To be noted: SF-295, 48 h, read-out: Activity. For orientation: In SRB staining, fixed cells bind dye roughly in proportion to their protein.
For test [2], the system named is PC-3. Briefly: Growth inhibition of human PC3 cells assessed as cell growth at 1 uM after 48 hrs by SRB assay. To be noted: PC-3, 48 h, read-out: Activity.
The subject of test [3] is PC-3. Nature of the test: Growth inhibition of human PC3 cells assessed as cell growth at 100 uM after 48 hrs by SRB assay. To be noted: PC-3, 48 h, read-out: Activity.
Test [4] has as its system MDA-MB-231. Nature of the test: Growth inhibition of human MDA-MB-231 cells assessed as cell growth at 0.1 uM after 48 hrs by SRB assay. The following applies: MDA-MB-231, 48 h, read-out: Activity.
Test [5] deals with MCF7. Briefly: Growth inhibition of human MCF7 cells assessed as cell growth at 1 mM after 48 hrs by SRB assay. Set-up: Activity: scale not given: the % may be the effect or the level left.
In the next test the test system is T47D. Briefly: Growth inhibition of human T47D cells assessed as cell growth at 1 mM after 48 hrs by SRB assay. To be noted: read-out: Activity.
The next test concerns COLO 205. Nature of the test: Growth inhibition of human COLO205 cells assessed as cell growth at 100 uM after 48 hrs by SRB assay. To be noted: COLO 205, 48 h, read-out: Activity.
The next test has as its system RXF 393. Nature of the test: Growth inhibition of human RXF393 cells assessed as cell growth at 1 mM after 48 hrs by SRB assay. The following applies: RXF 393, 48 h, read-out: Activity.
The test system of test [6] is MCF7. Nature of the test: Growth inhibition of human MCF7 cells assessed as cell growth at 1 uM after 48 hrs by SRB assay. The following applies: MCF7, 48 h, read-out: Activity.
A further test has as its system U-251. Nature of the test: Growth inhibition of human U251 cells assessed as cell growth at 1 mM after 48 hrs by SRB assay. The following applies: U-251, 48 h, read-out: Activity.
In test [7] the test system is SF-295. Nature of the test: Growth inhibition of human SF295 cells after 48 hrs by […] growth inhibition assay. To be noted: SF-295, 48 h.
Test [8] concerns MDA-MB-231. Nature of the test: Growth inhibition of human MDA-MB-231 cells after 48 hrs by […] growth inhibition assay. The following applies: MDA-MB-231, 48 h.
The subject of the next test is ACHN. Nature of the test: Growth inhibition of human ACHN cells assessed as cell growth at 1 mM after 48 hrs by SRB assay. The following applies: read-out: Activity.
Test [9] concerns PC-3. Briefly: Growth inhibition of human PC3 cells assessed as cell growth at 1 mM after 48 hrs by SRB assay. To be noted: PC-3, 48 h, read-out: Activity.
For a further test, the system named is HCT-116. Briefly: Growth inhibition of human HCT116 cells assessed as cell growth at 100 uM after 48 hrs by SRB assay. The following applies: HCT-116, 48 h, read-out: Activity.

On to `CNC(=O)NC[C@H]1O[C@@H](n2cnc3c(NC(=O)Nc4ccccc4)ncnc32)[C@H](O[Si](C)(C)C(C)(C)C)[C@@H]1O[Si](C)(C)C(C)(C)C`, for which the growth at 10 µM in the test on SF-295 [1] was found to be 111%. The figures for the growth at 1 µM with PC-3 [2] and in the test on MCF7 [6] were 91% and 96%, respectively. For the same compound, the growth at 100 µM with PC-3 [3] was 6%; in the test with COLO 205, -95%; with HCT-116, -59%. Besides, in the test with MDA-MB-231 [4], the growth at 0.1 µM stood at 105%. Further, the Activity in the test with MCF7 [5] is -21% and -16%. Also, the growth at 1000 µM in the test on T47D was -32%; in the test with RXF 393, -77%; with U-251, -46%; in the test with ACHN it was 2%; in the test on PC-3 [9], 4%. Also, the GI50 with SF-295 [7] (read-out: GI50) is 3.84 µM; in the test with SF-295 [7] (read-out: pGI50 (converted)), 3.8 µM; in the test on MDA-MB-231 [8] (read-out: GI50) it was 2.61 µM; in the test on MDA-MB-231 [8] (read-out: pGI50 (converted)) it was 2.63 µM. For the same compound, the LC50 in the test on SF-295 [7] (read-out: LC50) and in the test with SF-295 [7] (read-out: pLC50 (converted)) was over 100 µM each time. Moreover, the TGI in the test on SF-295 [7] (read-out: TGI) was 31.8 µM; with SF-295 [7] (read-out: pTGI (converted)) it was 31.6 µM; in the test with MDA-MB-231 [8] (read-out: TGI) it was 6.12 µM; in the test on MDA-MB-231 [8] (read-out: pTGI (converted)) it was 6.17 µM. For the same compound, the CC50 with MDA-MB-231 [8] (read-out: LC50 (the source's name)) is 28.3 µM; with MDA-MB-231 [8] (read-out: pLC50 (the source's name) (converted)), 28.2 µM.

Take `CNC(=O)OC[C@H]1O[C@@H](n2cnc3c(NC(=O)Nc4ccccc4)ncnc32)[C@H](O[Si](C)(C)C(C)(C)C)[C@@H]1O[Si](C)(C)C(C)(C)C`: the growth at 10 µM with SF-295 [1] worked out at 108%.
